Source: patent publication US20210213010A1, “TLR7/8 AGONISTS AND LIPOSOME COMPOSITIONS” (Torque Therapeutics, Inc., priority 2018, published 2021)
“Also recorded” adds a separate entry of the source.

Key:
[1] = Cytokine/chemokine release kinetics in blood of non-tumor bearing B6D2F1/J mice (Luminex); format: in vivo, mouse; settings: single dose; 4 mg/kg Gdq or 2 mg/kg KRJ2-110 systemic, or loaded PMEL cells; 0-24 hr
Method: Spleens and lymphnodes were harvested from PMEL mice (B6. Cg-Thy1^a/Cy Tg(TcraTcrb)8Rest/J, Jackson Labs) and CD8 T cells purified by Mylteni MACS T cell separation kit. PMEL cells were stimulated and expanded on anti-CD3/CD28 coated plates with mouse IL2/IL7/IL21 cytokines and harvested for use. The cytokine/chemokine release profile in non-tumor bearing B6D2F1/J mice (Jackson Labs) was evaluated by injecting: • 20×10^6 PMEL cells alone, 20×10^6 PMEL cells loaded with 2.5 ant-CD45 Ab/liposome, 10% DOTAP, 35% cholesterol, 0.6% DSPE-PEG, POPC liposomes Gardiquimod pH gradient loaded as previously described (˜200 nmol gardiquimod, single dose) • 4 mg/kg Gdq systemic (no PMEL, single dose) • 2 mg/kg KRJ2-110 systemic (no PMEL, single dose)
Blood was drawn at 0, 0.25, 0.5, 1, 2, 4, 6, 10 and 24 hr and plasma was recovered for cytokine/chemokine quantitation using a Luminex kit. […] IP10 and TNFa are commonly used biomarkers for TLR7 agonists in human studies indicating these may be useful biomarkers in clinical studies for T cells loaded with TLR7 agonists.

[2] = test system: B16-F10 tumor; experiment: B16-F10 tumor model with adoptive cell transfer of PMEL cells (Example 80); format: in vivo, mouse; settings: versus HBSS, PMEL alone and PMEL loaded with Gdq liposomes
Method: Spleens and lymphnodes were harvested from PMEL mice (B6. Cg-Thy1^a/Cy Tg(TcraTcrb)8Rest/J, Jackson Labs) and CD8 T cells purified by Mylteni MACS T cell separation kit. PMEL cells were stimulated and expanded on anti-CD3/CD28 coated plates with mouse IL2/IL7/IL21 cytokines, harvested and loaded with liposomes for evaluation in vivo. PMEL cells at 50×10^6/mL were incubated with liposomes at 10 mM lipid concentration for 60 minutes at 37 C, washed twice and formulated in HBSS prior to injection into the mice. In vivo study details show below. Briefly, 100 ul of 0.5×10^6 B16-F10 cells formulated in HBSS were injected SubQ (SQ) or intra-dermal (ID) and grown for 9 days prior to treatment. 1 day prior to treatment, 4 mg/mouse of cyclophosphamide (CPX) was injected intraperitoneal (IP) with 200 ul at 20 mg/mL in phosphate buffered saline (PBS). There were 10 mice used per group and all treatments were injected intravenous (IV) via tail vein injection, the groups were as follows: • HBSS alone (single dose) • 20×10^6 PMEL cells/mouse (single dose) • 20×10^6 PMEL cells/mouse backpacked with 2.5 antiCD45 Ab/liposome, 10% DOTAP, 35% cholersterol, 0.6% DSPE-PEG, POPC, pH gradient loaded as previously described with Gardiquimod (˜200 nmol Gardiquimod/mouse, single dose) • 20×10^6 PMEL cells/mouse followed by 4 mg/kg Gardiquimod systemically on day 0 (treatment day, day 6, day 13, day 25 • 20×10^6 PMEL cells/mouse followed by 2 mg/kg KRJ2-110 systemically on day 0 (treatment day), day 6, day 13, day 25

[3] = test system: whole human blood; experiment: IL-12p40 cytokine expression in stimulated whole human blood (ELISA); format: cell-based; settings: drug/lipid ratio 0.1
Method: (§1) This example describes the general procedure used to assess the level of cytokine IL-6 and IL-12p40 expressions upon stimuli of whole human blood with small molecules or small molecules in liposomal formulations F1 and F2. 10 mM DMSO solutions of the small molecules were diluted in RPMI media (RPMI-1640, Sigma Aldrich) with 1% penicillin/streptomycin (p/s). […], of each dilution was transferred to Nunc™ 96-Well Polystyrene Conical Bottom MicroWell™ Plates in duplicates. Blood was drawn from two human donors, diluted in RPMI with 1% p/s and added to each well to reach final concentrations of 10 μM, 1 μM, and 0.1 μM of the small molecules. The plates were incubated at 37° C. in a cell incubator for 24h. The plates were then spun down in a plate centrifuge with 3200 revolutions per minute (rpm) for 10 min before 50 uL of the supernatant was transferred to new 96-well plates. The supernatant samples were subsequently stored at −80° C. until the day of cytokine measurements.
(§2) The level of cytokine expression was measured using either an IL-6 ELISA Kit (RnDSystems, cat #DY206) for IL-6, or an IL-12p40 ELISA Kit (RnDSystems, cat #DY1240) according to the manufacturer's protocols. This general procedure was used to generate the examples 24-33.

[4] = test system: RAW-Blue cells; experiment: NF-κB induction in RAW-Blue reporter cells (RAW 264.7 macrophages, SEAP); format: cell-based; settings: RAW-Blue; sigmoidal 4PL fitting, 24 h
Summary of the method: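 RAW 264.7 macrophages with NF-κB-inducible SEAP, 100×10^3 cells/well, exposed to compound dilutions (from DMSO stocks in PBS) for 24 h at 37 °C, triplicate. Supernatant SEAP read with QUANTI-Blue at 640 nm after 3–6 h, normalized to DMSO blank; EC50 from 4PL fits.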

[5] = test system: whole human blood; experiment: IL-6 cytokine expression in stimulated whole human blood (ELISA); format: cell-based
Method: as §1, §2

[6] = Remote loading efficiency of small molecules into liposomes (PD-10 size exclusion, HPLC); format: physicochemical; settings: for Remote loading efficiency 1 h (%): drug/lipid ratio 0.10, 1 h; for Remote loading efficiency 3 h (%): drug/lipid ratio 0.10, 3 h
Summary of the method: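 A lyophilized small-molecule powder (modified TLR agonist) was combined with liposome formulation at the desired drug/lipid ratio and stirred at elevated temperature. At 1 h and 3 h, 100 μL of mixture plus 900 μL buffer (25 mM HEPES, 10 vol % sucrose, pH 7.4) went onto a PD-10 size exclusion column. Ten 1 mL fractions were collected, and HPLC quantified compound in the liposome fractions as a percentage of the amount applied.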

[7] = amine in conjugation with the aromatic system; cited from earlier work

Weight of tumor bearing mice [2]	EC50 [4]	Remote loading efficiency 1 h (%) ([6]; formulation F1, HEPES)	Remote loading efficiency 3 h (%) ([6]; formulation F1, HEPES)	Remote loading efficiency 1 h (%) ([6]; formulation F2, HEPES)	Remote loading efficiency 3 h (%) ([6]; formulation F2, HEPES)	SMILES	Proinflammatory cytokines such as IFNg, IL12 in blood [1]	Expression of IL-12p40 upon stimulation of whole human blood ([3]; remote loaded in formulation F1, HEPES)	Expression of IL-12p40 upon stimulation of whole human blood ([3]; remote loaded in formulation F2, HEPES)	Expression of IL-6 upon stimulation of whole human blood ([5]; free small molecule, 10, 1, 0.1 μM, 24 h, two donors)	Expression of IL-6 upon stimulation of whole human blood ([5]; remote loaded in formulation F1, HEPES, drug/lipid ratio 0.1)	Expression of IL-6 upon stimulation of whole human blood ([5]; remote loaded in formulation F2, HEPES, drug/lipid ratio 0.1)	pKa of the conjugate acid [7]
more substantial weight loss	1670 nM	89%	92%	89%	92%	CCNCc1nc2c(N)nc3ccccc3c2n1CC(C)(C)O [Gardiquimod, reference compound]	significant increase in proinflammatory cytokines	none of the small molecules Gardiquimod, MK087, MK088, and MK089 were capable of inducing expression of IL-12p40	capable of inducing expression of IL-12p40 in one donor at 10 μM	induced expression of IL-6 at 10 μM in donor 2	No induction of IL-6 expression	capable of inducing expression of IL-6 at 10 μM; also recorded: capable of inducing expression of IL-6 in both donors; also recorded: the most potent	–
–	150 nM	–	–	–	–	CCOCc1nc2c(N)nc3ccccc3c2n1CC(C)(C)O [R848, Resiquimod, reference compound]	–	–	–	–	–	–	approximately 4
